Each structure is given as a SMILES string.

Experiment [1] addresses T1, Leukotriene A-4 hydrolase (Homo sapiens) (UniProt P09960).
T1 sequence (whole entry): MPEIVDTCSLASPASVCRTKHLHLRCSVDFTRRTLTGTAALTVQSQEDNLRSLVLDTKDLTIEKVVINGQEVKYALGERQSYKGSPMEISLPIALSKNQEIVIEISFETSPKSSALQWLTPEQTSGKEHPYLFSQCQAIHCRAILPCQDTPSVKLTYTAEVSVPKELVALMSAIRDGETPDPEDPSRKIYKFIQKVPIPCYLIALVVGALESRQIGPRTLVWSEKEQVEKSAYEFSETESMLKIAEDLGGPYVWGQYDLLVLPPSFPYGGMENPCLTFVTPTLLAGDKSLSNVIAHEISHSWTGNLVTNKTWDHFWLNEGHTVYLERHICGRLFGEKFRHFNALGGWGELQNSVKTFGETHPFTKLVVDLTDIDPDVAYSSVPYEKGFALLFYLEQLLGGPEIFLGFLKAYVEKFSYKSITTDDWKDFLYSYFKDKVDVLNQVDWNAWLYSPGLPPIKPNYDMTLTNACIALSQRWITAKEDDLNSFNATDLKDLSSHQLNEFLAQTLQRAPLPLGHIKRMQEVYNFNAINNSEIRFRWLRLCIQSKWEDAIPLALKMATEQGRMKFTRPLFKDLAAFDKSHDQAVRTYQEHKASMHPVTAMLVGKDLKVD
As to the kind of experiment: Inhibition of Leukotriene B4 by inhibiting the conversion of Leukotriene A4 by a purified Leukotriene A4 hydrolase; IE - ineffective.

Experiment [2] relates to HL-60. As to the kind of experiment: Inhibitory activity against calcium ionophore induced Leukotriene B4 biosynthesis by the promyelocytic leukemia cell line HL-60 at concentrations of 10e-6 M; A - good inhibitory activity. Conditions: Homo sapiens. Format: functional, cell-based.

With `CCCCCCCCCC/C=C/C1=C[C@@H]2CC[C@@]1(CCCC(=O)O)O2`, the Activity entry is given as “Ineffective” in experiment [1] and “A” in experiment [2].

As to `CCCCCCCC/C=C\C=C\C1=C[C@@H]2CC[C@@]1(CCCC(=O)O)O2`, the Activity entry is listed as “Ineffective” in experiment [1] and “A” in experiment [2].

The values are drawn from ChEMBL document CHEMBL1126359, “Synthesis and pharmacological activity of rationally designed inhibitors of the leukotriene A4 hydrolase enzyme” (Bioorg Med Chem Lett, 1992).
